Source: patent publication US12473326B2, “Crystalline forms of dexamethasone dimers and uses thereof” (Ripple Therapeutics Corporation, priority 2019, dated 2025)

Columns and labels:
[1] = Drug release from heat-molded glassy pellets in PBS, 1% FBS in PBS or 100% FBS at 37° C. (HPLC); assay type: physicochemical; details: heat-molded pellets in the glassy state, about 1 mm x 1 mm
Protocol: Heat-molded pellets from Compound 1 (˜1 mm×1 mm) were then placed in 20 mL glass vials and 2 mL of release buffer (either 100% phosphate buffered saline (PBS), 1% fetal bovine serum (FBS) in PBS, or 100% FBS) was added. Samples were incubated at 37° C. on a shaker rotating at 115 rpm. After 1 day, 3 days, 7 days, and subsequently in alternating 3 and 4 day intervals (i.e., 1, 3, 7, 10, 14 days etc.), release buffer was sampled directly (PBS) or syringe filtered, proteins were precipitated with acetonitrile, and drug release products were extracted. The samples were analyzed by high performance liquid chromatography (HPLC) to quantify drug products.

[2] = Drug release from crystalline powders suspended in PBS with 50% FBS, quantified by HPLC over time; assay type: physicochemical; details: crystalline powder suspended in PBS with 50% FBS, FIG. 12
From the text: FIG. 12 is a graph depicting the release of Compound 1 from crystalline powders suspended in phosphate buffered saline (PBS) with 50% fetal bovine serum (FBS). The release of Compound 1 from the different crystalline forms was quantified by HPLC over time as described in Example 10.
Form I/II (mixture) and Form IV of Compound 1 were formed from acetonitrile and ethanol respectively. The crystalline powders were suspended in phosphate buffered saline (PBS) with 50% fetal bovine serum (FBS) and drug release from the different forms was quantified by HPLC over time (see FIG. 12).

[3] = Solubility in 90% acetonitrile-10% water as a function of temperature; assay type: physicochemical; details: Form II vs Form IV, FIG. 15
Protocol: FIG. 15 is a graph depicting the difference in the solubilities (mg/mi) of Form II and Form IV in […] as a function of temperature.
The solubility of Form II and Form IV were measured in 90% acetonitrile-10% water as a function of temperature (see FIG. 15).

[4] = Solubility in organic solvents; assay type: physicochemical
From the text: This observation has implications for coating applications as making high concentration coating solutions (e.g., for coating a surface by dip coating or spray coating a solution of Compound 1 onto the surface) will be much more practical from Form II than from Form IV.

[5] = assay type: physicochemical; details: for thermodynamic stability of polymorph: solid form, comparison among observed polymorphs; for interconversion into other polymorphs: under the conditions tested
From the text: Thus, Form IV in solid form has the advantage of longer-term shelf life without interconversion into another crystalline form.

[6] = Differential scanning calorimetry (behaviour on heating); assay type: physicochemical; details: DSC, FIG. 14

| SMILES | drug release from the crystalline form over time [2] | thermodynamic stability of polymorph [5] | interconversion into other polymorphs [5] | further results |
| --- | --- | --- | --- | --- |
| C[C@@H]1C[C@H]2[C@@H]3CCC4=CC(=O)C=C[C@]4(C)[C@@]3(F)[C@@H](O)C[C@]2(C)[C@@]1(O)C(=O)COC(=O)OCCOCCOCCOC(=O)OCC(=O)[C@@]1(O)[C@H](C)C[C@H]2[C@@H]3CCC4=CC(=O)C=C[C@]4(C)[C@@]3(F)[C@@H](O)C[C@@]21C [Compound 1, dexamethasone-triethylene glycol-dexamethasone] |  |  |  | mechanism of drug release from pellet [1]: Release Drug Through Surface Erosion from an Intact Pellet |
| C[C@@H]1C[C@H]2[C@@H]3CCC4=CC(=O)C=C[C@]4(C)[C@@]3(F)[C@@H](O)C[C@]2(C)[C@@]1(O)C(=O)COC(=O)OCCOCCOCCOC(=O)OCC(=O)[C@@]1(O)[C@H](C)C[C@H]2[C@@H]3CCC4=CC(=O)C=C[C@]4(C)[C@@]3(F)[C@@H](O)C[C@@]21C [Form I/II] | faster release compared to Form IV |  |  |  |
| C[C@@H]1C[C@H]2[C@@H]3CCC4=CC(=O)C=C[C@]4(C)[C@@]3(F)[C@@H](O)C[C@]2(C)[C@@]1(O)C(=O)COC(=O)OCCOCCOCCOC(=O)OCC(=O)[C@@]1(O)[C@H](C)C[C@H]2[C@@H]3CCC4=CC(=O)C=C[C@]4(C)[C@@]3(F)[C@@H](O)C[C@@]21C [Form II] |  | high thermodynamic stability | not observed to convert to Form IV | solubility as a function of temperature [3]: higher solubility; solubility in organic solvents, comparison in words ([4]; Form II vs Form IV): much more soluble in organic solvents than Form IV |
| C[C@@H]1C[C@H]2[C@@H]3CCC4=CC(=O)C=C[C@]4(C)[C@@]3(F)[C@@H](O)C[C@]2(C)[C@@]1(O)C(=O)COC(=O)OCCOCCOCCOC(=O)OCC(=O)[C@@]1(O)[C@H](C)C[C@H]2[C@@H]3CCC4=CC(=O)C=C[C@]4(C)[C@@]3(F)[C@@H](O)C[C@@]21C [Form IV] | slower dissolution | most thermodynamically stable polymorph observed | not seen to convert into any other polymorphs | behaviour on heating (thermal stability) [6]: decomposes on heating; solubility in organic solvents relative to Form II ([4]; acetonitrile, ethanol, tetrahydrofuran, 2-methyl tetrahydrofuran, isobutyl acetate, acetone, butyl acetate, ethyl acetate, isopropyl acetate, methanol): ca. 10 fold |
| C[C@@H]1C[C@H]2[C@@H]3CCC4=CC(=O)C=C[C@]4(C)[C@@]3(F)[C@@H](O)C[C@]2(C)[C@@]1(O)C(=O)COC(=O)OCCOCCOCCOC(=O)OCC(=O)[C@@]1(O)[C@H](C)C[C@H]2[C@@H]3CCC4=CC(=O)C=C[C@]4(C)[C@@]3(F)[C@@H](O)C[C@@]21C [Form VIII] |  |  |  | conversion to another form by PXRD ([5]; after 14 days at room temperature and/or cooling at 0° C. for 14 days): conversion to Form IV |
